From patent US6525022B1, “Receptor specific atrial natriuretic peptides” (Genentech, Inc., priority 1993, dated 2003)
Like-named read-outs stand apart in the source and are kept apart here. Values belong to the molecule of their own block, whether it stands above or below them. Where a SMILES comes first, the peptide text is derived from it. Bridges are numbered along the chain shown (N, C = ends). Where no end group is shown, it is not given here. [ ]: non-standard residue; d: D form. Cha = N[C@@H](CC1CCCCC1)C(=O)O; hCys = N[C@@H](CCS)C(=O)O

How the values were obtained:
[1] = biological target: human NEP (hNEP), endopeptidase 24.11 (Homo sapiens, UniProt P08473); assay: Degradation of ANF variants by human NEP, half-life by HPLC
Method: The half-life of various ANF variants was measured according to the following procedure.
ANF Solution: An accurately weighed amount of ANF or variant thereof was diluted with HEPES buffer (5 ml of 1 M HEPES Buffer and 0.1 ml of Tween 20 diluted to a 100 ml volume with DI water) to make a 0.5 mg/ml solution.
hNEP/HEPES Solution: 7.5 μl of a 1 mg/ml solution of hNEP (see U.S. Pat. No. 4,960,700) is dissolved in 992.5 μl of HEPES buffer (as described above) and vortex mixed. The resulting mixture is stored in a silylated Eppendorf tube and periodically checked for activity against an ANF peptide standard.
Assay conditions: 150 μl of an ANF solution in the HEPES buffer is diluted with 820 μl HEPES buffer and vortex mixed (1 sec). Careful note of the time is taken as 30 μl of the hNEP/HEPES solution is added and the solution is vortex mixed for 1 sec. and analyzed by periodic removal of constant volume aliquots by the HPLC autosampler. A 2.5 cm×50 cm, C-18 reversed-phase column (15 micron, 300 Å]) was used and elution was achieved by using a shallow gradient of increasing acetonitrile. The elution conditions consisted of a 10% to 50% acetonitrile (containing 0.1% TFA) gradient at 0.5% min.^−1. The aqueous phase was 0.1% TFA in water. The peak area of the ANP peptide is recorded at these periodic intervals and a half-life is determined from these values.

[2] = biological target: T1, human natriuretic peptide receptor-A (human, UniProt P16066 33-1061); assay: competition binding, Table I; tracer and receptor format not given
T1 construct: whole, on cells; also called hNPR-A; human NPR-A
T1 sequence (looked up): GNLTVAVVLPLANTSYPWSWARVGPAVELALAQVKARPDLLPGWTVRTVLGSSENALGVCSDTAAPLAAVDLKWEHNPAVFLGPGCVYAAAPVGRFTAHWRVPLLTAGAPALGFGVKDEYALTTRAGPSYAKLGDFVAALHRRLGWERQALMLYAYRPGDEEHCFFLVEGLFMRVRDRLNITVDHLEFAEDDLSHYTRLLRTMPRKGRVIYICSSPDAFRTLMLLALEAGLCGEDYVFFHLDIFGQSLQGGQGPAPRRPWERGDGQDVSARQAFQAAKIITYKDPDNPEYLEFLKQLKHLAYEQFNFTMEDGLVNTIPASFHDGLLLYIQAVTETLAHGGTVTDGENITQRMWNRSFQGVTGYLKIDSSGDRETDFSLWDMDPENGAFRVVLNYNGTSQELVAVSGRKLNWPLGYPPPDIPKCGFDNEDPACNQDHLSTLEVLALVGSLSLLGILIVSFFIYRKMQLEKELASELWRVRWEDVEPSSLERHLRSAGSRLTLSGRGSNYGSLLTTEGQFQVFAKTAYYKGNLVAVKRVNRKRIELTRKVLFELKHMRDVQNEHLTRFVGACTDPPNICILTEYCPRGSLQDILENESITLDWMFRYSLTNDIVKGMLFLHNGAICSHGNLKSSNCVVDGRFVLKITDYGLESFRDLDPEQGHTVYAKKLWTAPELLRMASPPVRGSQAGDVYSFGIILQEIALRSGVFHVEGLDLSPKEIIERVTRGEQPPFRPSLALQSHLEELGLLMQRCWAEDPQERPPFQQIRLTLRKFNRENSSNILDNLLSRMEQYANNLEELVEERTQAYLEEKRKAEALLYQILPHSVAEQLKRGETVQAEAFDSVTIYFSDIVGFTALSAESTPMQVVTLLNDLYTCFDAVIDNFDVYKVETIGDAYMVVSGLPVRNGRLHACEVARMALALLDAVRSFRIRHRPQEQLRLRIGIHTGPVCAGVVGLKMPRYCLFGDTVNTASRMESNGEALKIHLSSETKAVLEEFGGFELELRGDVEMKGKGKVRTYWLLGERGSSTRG

[3] = biological target: T2, human natriuretic peptide clearance receptor-C (human, UniProt P17342 27-541); assay: as above
T2 construct: whole, on cells; also called hNPR-C; human NPR-C
T2 sequence (looked up): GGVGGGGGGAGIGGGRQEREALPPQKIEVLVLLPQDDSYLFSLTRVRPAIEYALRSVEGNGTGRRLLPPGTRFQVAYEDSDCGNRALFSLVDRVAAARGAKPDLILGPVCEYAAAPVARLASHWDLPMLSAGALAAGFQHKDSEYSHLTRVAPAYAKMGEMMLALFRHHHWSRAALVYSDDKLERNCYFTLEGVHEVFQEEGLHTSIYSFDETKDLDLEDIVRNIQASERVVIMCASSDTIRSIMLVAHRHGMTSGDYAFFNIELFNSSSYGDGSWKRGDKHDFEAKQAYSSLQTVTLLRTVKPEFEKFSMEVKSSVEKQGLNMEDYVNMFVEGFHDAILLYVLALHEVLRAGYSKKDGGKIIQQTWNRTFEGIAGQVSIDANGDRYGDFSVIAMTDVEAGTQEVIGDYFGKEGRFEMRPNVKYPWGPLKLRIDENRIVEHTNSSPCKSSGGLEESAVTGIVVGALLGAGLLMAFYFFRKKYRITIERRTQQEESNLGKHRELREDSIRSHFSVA

[4] = isolated human NEP (endopeptidase 24.11) in HEPES buffer, Half-Life (min.), FIG. 6: ANF variants 0.5 mg/ml, NEP 0.225 mg/ml
[5] = isolated human NEP (endopeptidase 24.11) in HEPES buffer, Half-Life (min.), FIG. 7: ANF variants 32 nM/ml, NEP 0.45 μg/ml

human NEP (hNEP), endopeptidase 24.11, sequence (P08473 whole entry): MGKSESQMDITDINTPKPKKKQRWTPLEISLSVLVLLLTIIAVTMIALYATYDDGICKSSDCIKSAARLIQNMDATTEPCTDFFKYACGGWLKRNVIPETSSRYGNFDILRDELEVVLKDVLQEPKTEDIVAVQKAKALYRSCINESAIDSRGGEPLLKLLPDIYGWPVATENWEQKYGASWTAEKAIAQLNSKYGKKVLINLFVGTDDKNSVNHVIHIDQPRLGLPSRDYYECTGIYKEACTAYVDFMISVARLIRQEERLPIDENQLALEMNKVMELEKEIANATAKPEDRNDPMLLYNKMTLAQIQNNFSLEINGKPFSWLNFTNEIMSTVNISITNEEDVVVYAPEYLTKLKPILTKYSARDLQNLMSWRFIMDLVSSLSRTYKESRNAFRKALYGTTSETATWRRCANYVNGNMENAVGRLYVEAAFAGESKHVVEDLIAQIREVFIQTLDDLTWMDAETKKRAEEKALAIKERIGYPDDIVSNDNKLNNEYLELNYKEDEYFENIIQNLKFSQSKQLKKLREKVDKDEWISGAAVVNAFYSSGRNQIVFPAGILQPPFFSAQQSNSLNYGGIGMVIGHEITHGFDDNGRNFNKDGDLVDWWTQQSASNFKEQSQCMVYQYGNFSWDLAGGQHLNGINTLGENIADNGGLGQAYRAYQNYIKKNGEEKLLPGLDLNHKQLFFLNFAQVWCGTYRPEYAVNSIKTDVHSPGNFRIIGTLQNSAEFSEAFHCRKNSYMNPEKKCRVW

Molecule: CC[C@H](C)[C@@H]1NC(=O)[C@H](CCCNC(=N)N)NC(=O)[C@H](CC(=O)O)NC(=O)[C@H]([C@@H](C)CC)NC(=O)[C@H](CCCNC(=N)N)NC(=O)CNC(=O)CNC(=O)[C@H](Cc2ccccc2)NC(=O)[C@@H](NC(=O)[C@H](CO)NC(=O)[C@H](CO)NC(=O)[C@H](CCCNC(=N)N)NC(=O)[C@H](CCCNC(=N)N)NC(=O)[C@H](CC(C)C)NC(=O)[C@H](CO)NC(=O)[C@H](CCCNC(=N)N)NC(=O)[C@@H]2CCCN2C(=O)[C@H](C)NC(=O)[C@@H](N)[C@@H](C)O)CSSC[C@@H](C(=O)N[C@@H](CC(N)=O)C(=O)N[C@@H](CO)C(=O)N[C@@H](Cc2ccccc2)C(=O)N[C@@H](CCCNC(=N)N)C(=O)N[C@@H](Cc2ccc(O)cc2)C(=O)O)NC(=O)CNC(=O)[C@H](CC(C)C)NC(=O)CNC(=O)[C@H](CO)NC(=O)[C@H](CCC(N)=O)NC(=O)[C@H](C)NC(=O)[C@H](CCCNC(=N)N)NC1=O [ANF 23] (H-TAPRSLRRSSCFGGRIDRIRAQSGLGCNSFRY-OH; disulfide 11-27)
half-life at 0.5 mg/ml [1]: 12.3 h

Molecule: CC[C@H](C)[C@@H]1NC(=O)[C@H](CCCNC(=N)N)NC(=O)[C@H](CC(=O)O)NC(=O)[C@H]([C@@H](C)CC)NC(=O)[C@H](CCCNC(=N)N)NC(=O)CNC(=O)CNC(=O)[C@H](Cc2ccccc2)NC(=O)[C@@H](NC(=O)[C@H](CO)NC(=O)[C@H](CO)NC(=O)[C@H](CCCNC(=N)N)NC(=O)[C@H](CCCNC(=N)N)NC(=O)[C@H](CC(C)C)NC(=O)[C@@H](N)CO)CSSC[C@@H](C(=O)N[C@@H](CC(N)=O)C(=O)N[C@@H](CO)C(=O)N[C@@H](Cc2ccccc2)C(=O)N[C@@H](CCCNC(=N)N)C(=O)N[C@@H](Cc2ccc(O)cc2)C(=O)O)NC(=O)CNC(=O)[C@H](CC(C)C)NC(=O)CNC(=O)[C@H](CO)NC(=O)[C@H](CCC(N)=O)NC(=O)[C@H](C)NC(=O)[C@H](CCCNC(=N)N)NC1=O [ANF 24]
half-life at 0.5 mg/ml [1, 4]: 10 h

Molecule: CC[C@H](C)[C@@H]1NC(=O)[C@H](CO)NC(=O)[C@H](CC(=O)O)NC(=O)[C@H]([C@@H](C)CC)NC(=O)[C@H](CCCNC(=N)N)NC(=O)CNC(=O)CNC(=O)[C@H](Cc2ccccc2)NC(=O)[C@@H](NC(=O)[C@H](CO)NC(=O)[C@H](CO)NC(=O)[C@H](CCCNC(=N)N)NC(=O)[C@H](CCCNC(=N)N)NC(=O)[C@H](CC(C)C)NC(=O)[C@@H](N)CO)CSSC[C@@H](C(=O)N[C@@H](CC(N)=O)C(=O)N[C@@H](CO)C(=O)N[C@@H](Cc2ccccc2)C(=O)N[C@@H](CCCNC(=N)N)C(=O)N[C@@H](Cc2ccc(O)cc2)C(=O)O)NC(=O)CNC(=O)[C@H](CC(C)C)NC(=O)CNC(=O)[C@H](CO)NC(=O)[C@H](CCC(N)=O)NC(=O)[C@H](C)NC(=O)[C@H](CCCNC(=N)N)NC1=O [ANF 25] (H-SLRRSSCFGGRIDSIRAQSGLGCNSFRY-OH; disulfide 7-23 (inferred); N-terminus and C-terminus assumed)
half-life at 32 nM/ml [1, 5]: 3.32 h

Molecule: CC[C@H](C)[C@@H]1NC(=O)[C@H](CCCNC(=N)N)NC(=O)[C@H](CC(=O)O)NC(=O)[C@H]([C@@H](C)CC)NC(=O)[C@H](CO)NC(=O)CNC(=O)[C@H]([C@@H](C)O)NC(=O)[C@H](Cc2ccccc2)NC(=O)[C@@H](NC(=O)[C@H](CO)NC(=O)[C@H](CO)NC(=O)[C@H](CCCNC(=N)N)NC(=O)[C@H](CCCNC(=N)N)NC(=O)[C@H](CC(C)C)NC(=O)[C@@H](N)CO)CSSC[C@@H](C(=O)N[C@@H](CC(N)=O)C(=O)N[C@@H](CO)C(=O)N[C@@H](Cc2ccccc2)C(=O)N[C@@H](CCCNC(=N)N)C(=O)N[C@@H](Cc2ccc(O)cc2)C(=O)O)NC(=O)CNC(=O)[C@H](CC(C)C)NC(=O)CNC(=O)[C@H](CO)NC(=O)[C@@H]2CCCN2C(=O)[C@H](C)NC(=O)[C@H](CCCNC(=N)N)NC1=O [ANF 31] (H-SLRRSSCFTGSIDRIRAPSGLGCNSFRY-OH; disulfide 7-23; C-terminus assumed)
half-life at 32 nM/ml [1, 5]: 2.97 h

The next lines start with the values.

half-life at 0.5 mg/ml [1, 4]: 1.55 h
Molecule: CC[C@H](C)[C@@H]1NC(=O)[C@H](CCCNC(=N)N)NC(=O)[C@H](CC(=O)O)NC(=O)[C@H](CCSC)NC(=O)[C@H](CO)NC(=O)CNC(=O)[C@H]([C@@H](C)O)NC(=O)[C@H](Cc2ccccc2)NC(=O)[C@@H](NC(=O)[C@H](CO)NC(=O)[C@H](CO)NC(=O)[C@H](CCCNC(=N)N)NC(=O)[C@H](CCCNC(=N)N)NC(=O)[C@H](CC(C)C)NC(=O)[C@@H](N)CO)CSSC[C@@H](C(=O)N[C@@H](CC(N)=O)C(=O)N[C@@H](CO)C(=O)N[C@@H](Cc2ccccc2)C(=O)N[C@@H](CCCNC(=N)N)C(=O)N[C@@H](Cc2ccc(O)cc2)C(=O)O)NC(=O)CNC(=O)[C@H](CC(C)C)NC(=O)CNC(=O)[C@H](CO)NC(=O)[C@H](CCC(N)=O)NC(=O)[C@H](C)NC(=O)CNC1=O [ANF 50] (H-SLRRSSCFTGSMDRIGAQSGLGCNSFRY-OH; disulfide 7-23; C-terminus assumed)

half-life at 32 nM/ml ([1]; isolated human NEP (endopeptidase 24.11) in HEPES buffer, Half-life, FIG. 8: 32 nM/ml peptide, 0.075 μg/ml NEP): 32.1 h
half-life at 32 nM/ml ([1]; isolated human NEP (endopeptidase 24.11) in HEPES buffer, Half-life, FIG. 8: 32 nM/ml peptide, 0.15 μg/ml NEP): 4.48 h
Molecule: CC[C@H](C)[C@@H]1NC(=O)[C@H](CCCNC(=N)N)NC(=O)[C@H](CC(=O)O)NC(=O)[C@H](CCSC)NC(=O)[C@@H]2CCCN2C(=O)[C@H](CCCNC(=N)N)NC(=O)[C@H](CCC(=O)O)NC(=O)[C@H](Cc2ccccc2)NC(=O)[C@@H](NC(=O)[C@H](CO)NC(=O)[C@H](CO)NC(=O)[C@H](CCCNC(=N)N)NC(=O)[C@H](CCCNC(=N)N)NC(=O)[C@H](CC(C)C)NC(=O)[C@@H](N)CO)CSSC[C@@H](C(=O)N[C@@H](CC(N)=O)C(=O)N[C@@H](CO)C(=O)N[C@@H](Cc2ccccc2)C(=O)N[C@@H](CCCNC(=N)N)C(=O)N[C@@H](Cc2ccc(O)cc2)C(=O)O)NC(=O)CNC(=O)[C@H](CC(C)C)NC(=O)CNC(=O)[C@H](CO)NC(=O)[C@H](CCC(N)=O)NC(=O)[C@H](C)NC(=O)CNC1=O [ANF 51] (H-SLRRSSCFERPMDRIGAQSGLGCNSFRY-OH; disulfide 7-23; C-terminus assumed)

half-life at 32 nM/ml [1, 5]: 7.95 h
Molecule: CC[C@H](C)[C@@H]1NC(=O)[C@H](CCCNC(=N)N)NC(=O)[C@H](CC(=O)O)NC(=O)[C@H]([C@@H](C)CC)NC(=O)[C@H](CO)NC(=O)CNC(=O)[C@H]([C@@H](C)O)NC(=O)[C@H](CC2CCCCC2)NC(=O)[C@@H](NC(=O)[C@H](CO)NC(=O)[C@H](CO)NC(=O)[C@H](CCCNC(=N)N)NC(=O)[C@H](CCCNC(=N)N)NC(=O)[C@H](CC(C)C)NC(=O)[C@@H](N)CO)CSSC[C@@H](C(=O)N[C@@H](CC(N)=O)C(=O)N[C@@H](CO)C(=O)N[C@@H](Cc2ccccc2)C(=O)N[C@@H](CCCNC(=N)N)C(=O)N[C@@H](Cc2ccc(O)cc2)C(=O)O)NC(=O)CNC(=O)[C@H](CC(C)C)NC(=O)CNC(=O)[C@H](CO)NC(=O)[C@H](CCC(N)=O)NC(=O)[C@H](C)NC(=O)[C@H](CCCNC(=N)N)NC1=O [ANF 79] (H-SLRRSSC[Cha]TGSIDRIRAQSGLGCNSFRY-OH; disulfide 7-23; C-terminus assumed)

IC50 [2]: 2.08 nM
IC50 [3]: 2000 nM
Molecule: SLRRSSC[dA]FTGSIDRIRAQSGLGCNSFRY (disulfide 7-24) [ANF 75]

IC50 [2]: 3.3 nM
Molecule: SLDRSSCFTGSLDSIRA[hCys]SGLGCNSFR[hCys] (disulfide 18-28, 7-23) [ANF 70]

IC50 [2]: 29.4 nM
IC50 [3]: 10000 nM
Molecule: SLRRSSC[dS]FTGSIDRIRAQSGLGCNSFRY (disulfide 7-24) [ANF 74]
